Measurements from ChEMBL document CHEMBL1201862, “PubChem BioAssay data set” (2004).
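Cells were grown in 96-well plates and exposed to each compound for 48 hours at five concentrations; endpoints were interpolated linearly between bracketing concentrations, or set to the highest concentration if not reached. GI50 marks 50% less growth.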 Activity calls are given as the source filed them. Rule as the data show it: active = GI50 up to about 1.1 µM and inactive = higher. Where a SMILES comes first, the peptide text is derived from it. The star is where a group is joined. Fmoc = O=C(OCC1c2ccccc2-c2ccccc21)*; OBn = c1ccc(CO*)cc1; tBu = CC(C)(C)*

What was measured:
Test in all cases: NCI-60 cell line screen, 48 h
UO-31 = test system: UO-31
HOP-92 = test system: HOP-92
OVCAR-3 = test system: OVCAR-3
DU-145 = test system: DU-145
UACC-62 = test system: UACC-62
OVCAR-5 = test system: OVCAR-5
HCT-116 = test system: HCT-116
SK-MEL-5 = test system: SK-MEL-5
HOP-62 = test system: HOP-62
MOLT-4 = test system: MOLT-4
MCF7 = test system: MCF7
CCRF-CEM = test system: CCRF-CEM
CAKI-1 = test system: CAKI-1
Malme-3M = test system: Malme-3M
NCI-H226 = test system: NCI-H226
T47D = test system: T47D
NCI-H460 = test system: NCI-H460
SNB-75 = test system: SNB-75
TK-10 = test system: TK-10
KM12 = test system: KM12

Structure (SMILES): NS(=O)(=O)c1cc(C(=O)O)c(O)c2ccccc12
- GI50 (UO-31): > 100 µM (inactive)
- GI50 (HOP-92): > 100 µM (inactive)
- GI50 (OVCAR-3): > 100 µM (inactive)
- GI50 (DU-145): > 100 µM (inactive)
- GI50 (UACC-62): > 100 µM (inactive)
- GI50 (OVCAR-5): > 100 µM (inactive)
- GI50 (HCT-116): > 100 µM (inactive)
- GI50 (SK-MEL-5): > 100 µM (inactive)
- GI50 (HOP-62): > 100 µM (inactive)
- GI50 (MOLT-4): > 100 µM (inactive)
- GI50 (MCF7): > 100 µM (inactive)
- GI50 (CCRF-CEM): > 100 µM (inactive)
- GI50 (CAKI-1): > 100 µM (inactive)
- GI50 (Malme-3M): 92 µM (inactive)
- GI50 (NCI-H226): > 100 µM (inactive)
- GI50 (T47D): > 100 µM (inactive)
- GI50 (NCI-H460): > 100 µM (inactive)
- GI50 (SNB-75): 82.6 µM (inactive)
- GI50 (TK-10): > 100 µM (inactive)
- GI50 (KM12): > 100 µM (inactive)

Structure (SMILES): C/C(=N\NC(=S)N/N=C(\C)c1ccccn1)c1ccccn1
- GI50 (UO-31): 0.809 µM (active)
- GI50 (HOP-92): 2.82 µM (inactive)
- GI50 (OVCAR-3): 0.656 µM (active)
- GI50 (DU-145): 3.62 µM (inactive)
- GI50 (UACC-62): 1.71 µM (inactive)
- GI50 (OVCAR-5): 0.675 µM (active)
- GI50 (HCT-116): 1.84 µM (inactive)
- GI50 (SK-MEL-5): 4.61 µM (inactive)
- GI50 (HOP-62): 1.05 µM (active)
- GI50 (MOLT-4): 1.31 µM (inactive)
- GI50 (MCF7): 1.85 µM (inactive)
- GI50 (CCRF-CEM): 0.337 µM (active)
- GI50 (CAKI-1): 1.41 µM (inactive)
- GI50 (Malme-3M): 2.38 µM (inactive)
- GI50 (NCI-H226): 0.738 µM (active)
- GI50 (T47D): 6.31 µM (inactive)
- GI50 (NCI-H460): 0.533 µM (active)
- GI50 (SNB-75): 5.93 µM (inactive)
- GI50 (TK-10): > 100 µM (inactive)
- GI50 (KM12): 1.28 µM (inactive)

Structure (SMILES): CC(OC(C)(C)C)C(NC(=O)OCC1c2ccccc2-c2ccccc21)C(=O)NC(Cc1ccccc1)C(=O)OCc1ccccc1 (stereo not given) (Fmoc-Thr(tBu)-Phe-OBn; configuration not given here)
- GI50 (UO-31): > 46.6 µM (inactive)
- GI50 (HOP-92): > 21.2 µM (inactive)
- GI50 (OVCAR-3): > 100 µM (inactive)
- GI50 (DU-145): > 100 µM (inactive)
- GI50 (UACC-62): > 100 µM (inactive)
- GI50 (OVCAR-5): > 100 µM (inactive)
- GI50 (HCT-116): > 100 µM (inactive)
- GI50 (SK-MEL-5): > 100 µM (inactive)
- GI50 (HOP-62): > 93.8 µM (inactive)
- GI50 (MOLT-4): > 61.9 µM (inactive)
- GI50 (MCF7): > 100 µM (inactive)
- GI50 (CCRF-CEM): > 100 µM (inactive)
- GI50 (CAKI-1): > 100 µM (inactive)
- GI50 (Malme-3M): > 100 µM (inactive)
- GI50 (NCI-H226): > 100 µM (inactive)
- GI50 (T47D): > 76.7 µM (inactive)
- GI50 (NCI-H460): > 100 µM (inactive)
- GI50 (SNB-75): > 100 µM (inactive)
- GI50 (TK-10): > 100 µM (inactive)
- GI50 (KM12): > 100 µM (inactive)

Structure (SMILES): CCOC(=O)c1c(N2CCCC2)[nH]c(=O)c(C(c2ccco2)c2c(O)c(C(=O)OCC)c(N3CCCC3)[nH]c2=O)c1O
- GI50 (UO-31): > 100 µM (inactive)
- GI50 (HOP-92): > 100 µM (inactive)
- GI50 (OVCAR-3): > 100 µM (inactive)
- GI50 (DU-145): > 100 µM (inactive)
- GI50 (UACC-62): > 100 µM (inactive)
- GI50 (OVCAR-5): 67.9 µM (inactive)
- GI50 (HCT-116): > 100 µM (inactive)
- GI50 (SK-MEL-5): 82.6 µM (inactive)
- GI50 (HOP-62): 50.6 µM (inactive)
- GI50 (MOLT-4): > 100 µM (inactive)
- GI50 (MCF7): > 100 µM (inactive)
- GI50 (CCRF-CEM): > 100 µM (inactive)
- GI50 (CAKI-1): > 100 µM (inactive)
- GI50 (Malme-3M): > 100 µM (inactive)
- GI50 (NCI-H226): > 100 µM (inactive)
- GI50 (T47D): 19.4 µM (inactive)
- GI50 (NCI-H460): > 100 µM (inactive)
- GI50 (SNB-75): 23.4 µM (inactive)
- GI50 (TK-10): > 100 µM (inactive)
- GI50 (KM12): > 100 µM (inactive)

Structure (SMILES): c1ccc(SCCc2ccncc2)cc1
- GI50 (UO-31): 45.4 µM (inactive)
- GI50 (HOP-92): 45.7 µM (inactive)
- GI50 (OVCAR-3): 40.6 µM (inactive)
- GI50 (DU-145): > 100 µM (inactive)
- GI50 (UACC-62): > 100 µM (inactive)
- GI50 (OVCAR-5): > 100 µM (inactive)
- GI50 (HCT-116): > 100 µM (inactive)
- GI50 (SK-MEL-5): 35.8 µM (inactive)
- GI50 (HOP-62): > 100 µM (inactive)
- GI50 (MOLT-4): 17.7 µM (inactive)
- GI50 (MCF7): 91.4 µM (inactive)
- GI50 (CCRF-CEM): 31.3 µM (inactive)
- GI50 (CAKI-1): 53 µM (inactive)
- GI50 (Malme-3M): > 100 µM (inactive)
- GI50 (NCI-H226): 77.1 µM (inactive)
- GI50 (T47D): 52.1 µM (inactive)
- GI50 (NCI-H460): > 100 µM (inactive)
- GI50 (SNB-75): > 100 µM (inactive)
- GI50 (TK-10): > 100 µM (inactive)
- GI50 (KM12): 78.7 µM (inactive)

Structure (SMILES): Cc1occc1C(=S)Nc1ccc(Cl)c(/C=N/OC(C)C)c1
- GI50 (UO-31): 19.4 µM (inactive)
- GI50 (HOP-92): 16.1 µM (inactive)
- GI50 (OVCAR-3): 15.6 µM (inactive)
- GI50 (DU-145): 24 µM (inactive)
- GI50 (UACC-62): 14.5 µM (inactive)
- GI50 (OVCAR-5): 21 µM (inactive)
- GI50 (HCT-116): 20.4 µM (inactive)
- GI50 (SK-MEL-5): 19.9 µM (inactive)
- GI50 (HOP-62): 25.2 µM (inactive)
- GI50 (MOLT-4): 20.8 µM (inactive)
- GI50 (MCF7): 19.1 µM (inactive)
- GI50 (CCRF-CEM): 18.1 µM (inactive)
- GI50 (CAKI-1): 17.3 µM (inactive)
- GI50 (Malme-3M): 19.8 µM (inactive)
- GI50 (NCI-H226): 18.2 µM (inactive)
- GI50 (T47D): 12.1 µM (inactive)
- GI50 (NCI-H460): 21 µM (inactive)
- GI50 (SNB-75): 25.1 µM (inactive)
- GI50 (TK-10): 25.5 µM (inactive)
- GI50 (KM12): 20 µM (inactive)

Structure (SMILES): C=CCOc1ccc(C2C(C(=O)OC)C(=O)CC(O)(c3ccccc3)C2C(=O)OC)cc1OC (stereo not given)
- GI50 (UO-31): 22.4 µM (inactive)
- GI50 (HOP-92): 18 µM (inactive)
- GI50 (OVCAR-3): 45.6 µM (inactive)
- GI50 (DU-145): 51.6 µM (inactive)
- GI50 (UACC-62): 27.4 µM (inactive)
- GI50 (OVCAR-5): > 100 µM (inactive)
- GI50 (HCT-116): 20 µM (inactive)
- GI50 (SK-MEL-5): 35.3 µM (inactive)
- GI50 (HOP-62): 42.4 µM (inactive)
- GI50 (MOLT-4): 27.5 µM (inactive)
- GI50 (MCF7): 21.2 µM (inactive)
- GI50 (CCRF-CEM): 30.9 µM (inactive)
- GI50 (CAKI-1): 32.3 µM (inactive)
- GI50 (Malme-3M): 31.6 µM (inactive)
- GI50 (NCI-H226): 22.4 µM (inactive)
- GI50 (T47D): 20.8 µM (inactive)
- GI50 (NCI-H460): 30.3 µM (inactive)
- GI50 (SNB-75): 26.9 µM (inactive)
- GI50 (TK-10): 33.7 µM (inactive)
- GI50 (KM12): 23.5 µM (inactive)

Structure (SMILES): O=C(O)CCCCn1cnc2c(S)ncnc21
- GI50 (UO-31): > 100 µM (inactive)
- GI50 (HOP-92): > 100 µM (inactive)
- GI50 (OVCAR-3): > 100 µM (inactive)
- GI50 (DU-145): > 100 µM (inactive)
- GI50 (UACC-62): > 100 µM (inactive)
- GI50 (OVCAR-5): > 100 µM (inactive)
- GI50 (HCT-116): > 100 µM (inactive)
- GI50 (SK-MEL-5): > 100 µM (inactive)
- GI50 (HOP-62): > 100 µM (inactive)
- GI50 (MOLT-4): > 100 µM (inactive)
- GI50 (MCF7): > 100 µM (inactive)
- GI50 (CCRF-CEM): 4.33 µM (inactive)
- GI50 (CAKI-1): > 100 µM (inactive)
- GI50 (Malme-3M): > 100 µM (inactive)
- GI50 (NCI-H226): > 100 µM (inactive)
- GI50 (T47D): > 100 µM (inactive)
- GI50 (NCI-H460): > 100 µM (inactive)
- GI50 (SNB-75): > 100 µM (inactive)
- GI50 (TK-10): > 100 µM (inactive)
- GI50 (KM12): > 100 µM (inactive)

Structure (SMILES): COc1cccc(C2c3cc4c(cc3OC(Nc3ccccc3)C2C)OCO4)c1OC (stereo not given)
- GI50 (UO-31): 4.19 µM (inactive)
- GI50 (HOP-92): 5.43 µM (inactive)
- GI50 (OVCAR-3): 5.36 µM (inactive)
- GI50 (DU-145): 7.08 µM (inactive)
- GI50 (UACC-62): 9.55 µM (inactive)
- GI50 (OVCAR-5): 44.5 µM (inactive)
- GI50 (HCT-116): 3.52 µM (inactive)
- GI50 (SK-MEL-5): 6.5 µM (inactive)
- GI50 (HOP-62): 15 µM (inactive)
- GI50 (MOLT-4): 1.81 µM (inactive)
- GI50 (MCF7): 6.89 µM (inactive)
- GI50 (CCRF-CEM): 2.88 µM (inactive)
- GI50 (CAKI-1): 3.87 µM (inactive)
- GI50 (Malme-3M): 6.31 µM (inactive)
- GI50 (NCI-H226): 1.84 µM (inactive)
- GI50 (T47D): 5.14 µM (inactive)
- GI50 (NCI-H460): 3.43 µM (inactive)
- GI50 (SNB-75): 20.5 µM (inactive)
- GI50 (TK-10): 6.46 µM (inactive)
- GI50 (KM12): 4.02 µM (inactive)
